In patent US12559474B2, “Triazine derivatives having virus replication inhibitory activity and pharmaceutical composition comprising the same” (priority 2021, dated 2026):
Where two headings read alike, the source gives them in different places.

How the values were obtained:
SARS-CoV-2 = assay: microbe, parasite or virus in culture; type: cell-based; details: Severe acute respiratory syndrome coronavirus 2, VeroE6/TMPRSS2, 72 h, 50% SARS-CoV-2 infected cell death inhibitory concentration, VeroE6/TMPRSS2 cells, 3 days culture
SARS-CoV-2 3CL protease = SARS-CoV-2 3CL protease (Severe acute respiratory syndrome coronavirus 2, UniProt P0DTD1); assay: biochemical; details: 50% SARS-CoV-2 3CL protease inhibitory concentration, read-out: IC50

| SMILES | EC50 (SARS-CoV-2; class symbols) [nM] | IC50 (SARS-CoV-2 3CL protease; given as class symbols) [nM] | EC50 (SARS-CoV-2; CellTiter-Glo 2.0) [nM] | IC50 (SARS-CoV-2 3CL protease; RapidFire MS) [nM] |
| --- | --- | --- | --- | --- |
| N#Cc1cc(Cn2c(Nc3cc4cn(C(F)F)nc4cc3Cl)nc(=O)n(-c3cncc4ccccc34)c2=O)ccc1F [Compound I-0428] | < 1000 | < 100 |  |  |
| Cc1nc2cc(C)c(Nc3nc(=O)n(-c4cncc5ccccc45)c(=O)n3Cc3ccc(F)c(C#N)c3)cc2o1 [II-0192] |  |  | 454 | 37 |
| CNc1nc2cc(F)c(Nc3nc(=O)n(-c4cncc(C)c4)c(=O)n3Cc3cc(C#N)ccc3Cl)cc2s1 [II-0292] |  |  | 434 | 3.9 |
| Cn1cnc(Cn2c(=O)nc(Nc3cc4cn(CC5CC5)nc4cc3Cl)n(Cc3cc(F)c(F)cc3F)c2=O)n1 [II-0352] | < 1000 | < 100 |  |  |
| Cc1cncc(-n2c(=O)nc(Nc3ccc4nn(CC(F)F)cc4c3)n(Cc3cc(C#N)c(F)cc3C)c2=O)c1 [II-0278] |  |  | 170 | 3.1 |
| Cc1cncc(-n2c(=O)nc(Nc3cc4sc(NCC(F)(F)F)nc4cc3F)n(Cc3ccc(F)c(C#N)c3)c2=O)c1 [II-0244] | 1000 to 10000 | < 100 |  |  |
| Cn1cc2cc(Nc3nc(=O)n(-c4cncc(C(F)(F)F)c4)c(=O)n3Cc3cc(F)c(F)c(F)c3)c(Cl)cc2n1 [II-0273] |  |  | 6600 | 360 |
| N#CCn1cc2cc(Nc3nc(=O)n(Cc4ccc[nH]c4=O)c(=O)n3Cc3cc(F)c(F)c(F)c3)c(Cl)cc2n1 [II-0507] | 1000 to 10000 | < 100 |  |  |
| Cc1cncc(-n2c(=O)nc(Nc3cc4cn(C)nc4cc3C)n(Cc3cc(F)c(F)c(F)c3)c2=O)c1 [Compound I-0114] | 1000 to 10000 | < 100 |  |  |
| CCc1cc(OC)ccc1Nc1nc(=O)n(Cc2ccc[nH]c2=O)c(=O)n1Cc1cc(F)c(F)c(F)c1 [Compound I-0165] | 1000 to 10000 | < 100 |  |  |
| Cc1cncc(-n2c(=O)nc(Nc3cc4cn(C)nc4cc3Cl)n(Cc3cc(C#N)ccc3CCC(C)(C)O)c2=O)c1 [II-0024] | 1000 to 10000 | < 100 |  |  |
| Cc1cncc(-n2c(=O)nc(Nc3cc4cn(C)nc4cc3Cl)n(Cc3cc(F)c(F)cc3Br)c2=O)c1 [II-0404] | < 1000 | < 100 |  |  |
| Cc1cncc(-n2c(=O)nc(Nc3ccc4ncccc4c3)n(Cc3ccc(F)c(C#N)c3)c2=O)c1 [II-0204] | 1000 to 10000 | < 100 |  |  |
| O=c1[nH]cccc1Cn1c(=O)nc(N2Cc3ccccc3C2)n(Cc2cc(F)c(F)c(F)c2)c1=O [Compound I-0180] |  |  | 6410 | 58 |
| Cn1cc2cc(Nc3nc(=O)n(Cc4nccc(N)n4)c(=O)n3Cc3cc(F)c(F)cc3F)c(Cl)cc2n1 [II-0246] | 1000 to 10000 | < 100 |  |  |
| CCn1cc2cc(Nc3nc(=O)n(-c4cncc(C)c4)c(=O)n3Cc3cc(C#N)ccc3C)c(Cl)cc2n1 [II-0493] |  |  | 68 | 1.3 |
| Cc1cncc(-n2c(=O)nc(Nc3cc4cn(C)nc4cc3Cl)n(Cc3cc(C#N)c(F)cn3)c2=O)c1 [II-0535] | < 1000 | < 100 |  |  |
| CNc1nc2cc(Cl)c(Nc3nc(=O)n(-c4cncc(C)c4)c(=O)n3Cc3cc(F)c(F)cc3F)cc2s1 [II-0236] | < 1000 | < 100 |  |  |
| COc1ccc(Nc2nc(=O)n(Cc3ccc[nH]c3=O)c(=O)n2Cc2cc(F)cc(Cl)c2)cc1 [Compound I-0316] | 1000 to 10000 | < 100 |  |  |
| Cn1cnc(Cn2c(=O)nc(Nc3cc4cn(C)nc4cc3Cl)n(Cc3ccc(F)c(Cl)c3)c2=O)n1 [II-0050] | < 1000 | < 100 |  |  |
| CCn1cc2cc(Nc3nc(=O)n(-c4cncc(C)c4)c(=O)n3Cc3cc(C#N)c(F)cc3C)c(Cl)cc2n1 [II-0233] |  |  | 65 | 1.5 |
| Cc1nc2cc(Cl)c(Nc3nc(=O)n(Cc4ccc[nH]c4=O)c(=O)n3Cc3cc(F)c(F)c(F)c3)cc2o1 [Compound I-0459] | 1000 to 10000 | < 100 |  |  |
| COc1ccc(Nc2nc(=O)n(Cc3ccc[nH]c3=O)c(=O)n2Cc2cc(Cl)ccc2Cl)cc1 [Compound I-0214] | < 1000 | < 100 |  |  |
| CNc1nc2cc(Cl)c(Nc3nc(=O)n(-c4cncc(C)c4)c(=O)n3Cc3cc(F)c(F)c(F)c3)cc2s1 [II-0318] | < 1000 | < 100 |  |  |
| CN(C)C(=O)Cn1cc2cc(Nc3nc(=O)n(-c4cncc5ccccc45)c(=O)n3Cc3cc(F)c(F)cc3F)c(Cl)cc2n1 [II-0002] | 1000 to 10000 | < 100 |  |  |

| SMILES | EC50 (SARS-CoV-2; class symbols) [nM] | IC50 (SARS-CoV-2 3CL protease; given as class symbols) [nM] | EC50 (SARS-CoV-2; CellTiter-Glo 2.0) [nM] | IC50 (SARS-CoV-2 3CL protease; RapidFire MS) [nM] |
| --- | --- | --- | --- | --- |
| Cc1cncc(-n2c(=O)nc(Nc3cc4cn(C)nc4cc3Cl)n(Cc3cc(Cl)cc(Br)c3)c2=O)c1 [II-0215] | 1000 to 10000 | < 100 |  |  |
| Cc1cncc(-n2c(=O)nc(Nc3cc4cn(C(F)F)nc4cc3Cl)n(Cc3ccc(F)c(C#N)c3)c2=O)c1 [Compound I-0430] | < 1000 | < 100 |  |  |
| Cc1nc2cc(Cl)c(Nc3nc(=O)n(Cc4ccc[nH]c4=O)c(=O)n3Cc3cc(F)c(F)c(Cl)c3)cc2n1C [Compound I-0264] | 1000 to 10000 | < 100 |  |  |
| Cn1cc(-c2ccnc(Cn3c(=O)nc(Nc4cc5cn(C)nc5cc4Cl)n(Cc4cc(F)c(F)cc4F)c3=O)c2)cn1 [II-0254] | 1000 to 10000 | < 100 |  |  |
| COc1nc2cc(Cl)c(Nc3nc(=O)n(Cc4ccc[nH]c4=O)c(=O)n3Cc3cc(F)c(F)c(F)c3)cc2s1 [II-0418] |  |  | 6240 | 110 |
| Cn1cnc(Cn2c(=O)cc(Nc3cc4cn(C(F)F)nc4cc3Cl)n(Cc3ccc(F)c(C#N)c3)c2=O)n1 [II-0433] | < 1000 | < 100 |  |  |
| COc1ccc(Oc2nc(=O)n(Cc3ccc[nH]c3=O)c(=O)n2Cc2cc(F)c(F)c(F)c2)c(C)c1 [Compound I-0128] | < 1000 |  |  | 9700 |
| C=Cc1cc(F)c(F)cc1Cn1c(Nc2cc3cn(C)nc3cc2Cl)nc(=O)n(-c2cncc(C)c2)c1=O [II-0067] | < 1000 | < 100 |  |  |
| Cc1cncc(-n2c(=O)nc(Nc3cc4cn(C)nc4cc3Cl)n(Cc3cc(Cl)ccc3C)c2=O)c1 [II-0332] |  |  | 54 | 2 |
| Cc1cncc(-n2c(=O)nc(Nc3ccc4nc(NCC(F)(F)F)sc4c3)n(Cc3cc(F)c(F)c(C#N)c3)c2=O)c1 [II-0295] | 1000 to 10000 | < 100 |  |  |
| CC(C)n1cc2cc(Nc3nc(=O)n(Cc4ncn(C)n4)c(=O)n3Cc3cc(F)c(F)cc3F)c(Cl)cc2n1 [II-0285] | < 1000 | < 100 |  |  |
| COc1ccc(Nc2nc(=O)n(-c3cncc4ccccc34)c(=O)n2Cc2cc(F)c(F)c(F)c2)cc1 [Compound I-0136] | 1000 to 10000 | < 100 |  |  |
| CNc1nc2cc(Cl)c(Nc3nc(=O)n(Cc4ncn(C)n4)c(=O)n3Cc3cc(Cl)c(F)cc3F)cc2o1 [II-0104] | 1000 to 10000 | < 100 |  |  |
| COc1ccc(Nc2nc(=O)n(Cc3ncc(C)s3)c(=O)n2Cc2cc(F)c(F)c(F)c2)cc1 [Compound I-0339] | 1000 to 10000 | 100 to 1000 | 8000 | 610 |
| Cc1cncc(-n2c(=O)nc(Nc3cc4cn(C)nc4cc3Cl)n(Cc3cc(F)c(F)c(F)c3)c2=O)c1F [II-0270] | 1000 to 10000 | < 100 |  |  |
| COc1cc(C)c(Nc2nc(=O)n(-c3cncc(C)c3)c(=O)n2Cc2ccc(F)c(C#N)c2)cn1 [II-0122] | 1000 to 10000 | < 100 |  |  |
| N#Cc1cc(Cn2c(Nc3ccc4c(c3)CCO4)nc(=O)n(-c3cncc(F)c3)c2=O)ccc1F [Compound I-0350] | < 1000 | < 100 |  |  |
| Cc1cncc(-n2c(=O)nc(Nc3cc4cn(C)nc4cc3Cl)n(Cc3cc(Br)cc(C#N)c3)c2=O)c1 [II-0210] | 1000 to 10000 | < 100 |  |  |
| Cn1cnc(Cn2c(=O)nc(Nc3cc4sc(NC5CC5)nc4cc3Cl)n(Cc3cc(F)c(F)cc3F)c2=O)n1 [II-0306] |  |  | 410 | 5.1 |
| Cn1cc2cc(Nc3nc(=O)n(-c4cncc(Cl)c4)c(=O)n3Cc3cc(Cl)c(F)cc3F)ccc2n1 [II-0576] |  |  | 530 | 17 |
| Cn1cnc(Cn2c(=O)nc(Nc3cc4cn(C)nc4cc3Cl)n(Cc3cc(F)c(F)c(F)c3)c2=O)c1 [Compound I-0426] |  |  | 1030 | 6.3 |
| Cc1cncc(-n2c(=O)nc(Nc3ccc4c(c3)CCCO4)n(Cc3ccc(F)c(C#N)c3)c2=O)c1 [II-0166] | < 1000 | < 100 |  |  |
| CC(C)(C)OC(=O)Nc1nc2cc(Cl)c(Nc3nc(=O)n(Cc4ccc[nH]c4=O)c(=O)n3Cc3cc(F)c(F)c(F)c3)cc2s1 [Compound I-0466] | < 1000 | < 100 |  |  |
| O=C1CC=CC=C1Cn1c(=O)nc(Nc2cc3cn(C4CCOCC4)nc3cc2Cl)n(Cc2cc(F)c(F)c(F)c2)c1=O [Compound I-0451] | 1000 to 10000 | < 100 |  |  |
